Source: PubChem BioAssay AID248 (DTP/NCI, 2004)
“And” between values parts separate entries of the source, which are not always exact repeats. Equal values may be shown once. Inconclusive results and toxic doses are left out. Rule as the data show it: active = T/C of 150% or more; inactive = T/C below 125%.

Test system: L1210 leukemia ip in BDF1 mice, survival T/C
Test: NCI In Vivo Anticancer Drug Screen. Data for tumor model L1210 Leukemia (intraperitoneal) in B6D2F1 (BDF1) mice
Settings: endpoint: mean survival time, higher = longer survival
Outline: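 Antitumor effect is assessed in tumor-bearing animals. Survival in the compound arm is compared with a vehicle-dosed control arm and expressed as their quotient.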

[1] = dose: 100.0 mg/kg/injection, schedule: Q04DX002 (ip), vehicle: saline
[2] = dose: 200.0 mg/kg/injection, schedule: Q04DX002 (ip), vehicle: saline
[3] = dose: 400.0 mg/kg/injection, schedule: Q04DX002 (ip), vehicle: saline
[4] = dose: 50.0 mg/kg/injection, schedule: Q01DX009 (ip), vehicle: saline
[5] = dose: 100.0 mg/kg/injection, schedule: Q01DX001 (ip), vehicle: saline
[6] = dose: 100.0 mg/kg/injection, schedule: Q01DX009 (ip), vehicle: saline
[7] = dose: 200.0 mg/kg/injection, schedule: Q01DX001 (ip), vehicle: saline
[8] = dose: 200.0 mg/kg/injection, schedule: Q01DX009 (ip), vehicle: saline
[9] = dose: 400.0 mg/kg/injection, schedule: Q01DX001 (ip), vehicle: saline
[10] = dose: 100.0 mg/kg/injection, schedule: Q04DX003 (ip), vehicle: saline with Tween-80
[11] = dose: 200.0 mg/kg/injection, schedule: Q04DX003 (ip), vehicle: saline with Tween-80
[12] = dose: 100.0 mg/kg/injection, schedule: Q04DX002 (ip), vehicle: Klucel (hydroxypropylcellulose) (HPC)
[13] = dose: 200.0 mg/kg/injection, schedule: Q04DX002 (ip), vehicle: Klucel (hydroxypropylcellulose) (HPC)
[14] = dose: 100.0 mg/kg/injection, schedule: Q01DX009 (ip), vehicle: Klucel (hydroxypropylcellulose) (HPC)
[15] = dose: 200.0 mg/kg/injection, schedule: Q01DX009 (ip), vehicle: Klucel (hydroxypropylcellulose) (HPC)
[16] = dose: 400.0 mg/kg/injection, schedule: Q01DX009 (ip), vehicle: Klucel (hydroxypropylcellulose) (HPC)
[17] = dose: 100.0 mg/kg/injection, schedule: Q04DX003 (ip), vehicle: Klucel (hydroxypropylcellulose) (HPC)
[18] = dose: 200.0 mg/kg/injection, schedule: Q04DX003 (ip), vehicle: Klucel (hydroxypropylcellulose) (HPC)
[19] = dose: 400.0 mg/kg/injection, schedule: Q04DX003 (ip), vehicle: Klucel (hydroxypropylcellulose) (HPC)
[20] = dose: 50.0 mg/kg/injection, schedule: Q01DX009 (ip), vehicle: saline with Tween-80
[21] = dose: 100.0 mg/kg/injection, schedule: Q01DX009 (ip), vehicle: saline with Tween-80
[22] = dose: 200.0 mg/kg/injection, schedule: Q01DX009 (ip), vehicle: saline with Tween-80
[23] = dose: 75.0 mg/kg/injection, schedule: Q01DX001 (ip), vehicle: saline
[24] = dose: 400.0 mg/kg/injection, schedule: Q01DX009 (ip), vehicle: saline with Tween-80

Measured: T/C

NC(=O)C(O)C(O)C(O)C(O)CO (stereo not drawn)
inactive: [1] 91 % of control and 99 % of control | [2] 95 % of control and 96 % of control | [3] 95 % of control and 105 % of control

NC(C=O)C(O)C(O)C(O)CO (stereo not drawn)
inactive: [4] 94 % of control | [5] 104 % of control and 93 % of control | [6] 94 % of control | dose: 125.0 mg/kg/injection, schedule: Q01DX Z (ip), vehicle: carboxymethylcellulose (CMC) 100 % of control | [7] 105 % of control and 102 % of control | [8] 94 % of control | dose: 250.0 mg/kg/injection, schedule: Q01DX Z (ip), vehicle: carboxymethylcellulose (CMC) 94 % of control | [9] 102 % of control and 96 % of control | dose: 500.0 mg/kg/injection, schedule: Q01DX Z (ip), vehicle: carboxymethylcellulose (CMC) 96 % of control | dose: 750.0 mg/kg/injection, schedule: Q01DX009 (ip), vehicle: saline 100 % of control | dose: 1000.0 mg/kg/injection, schedule: Q01DX Z (ip), vehicle: carboxymethylcellulose (CMC) 95 % of control | dose: 1500.0 mg/kg/injection, schedule: Q01DX009 (ip), vehicle: saline 104 % of control | dose: 3000.0 mg/kg/injection, schedule: Q01DX009 (ip), vehicle: saline 104 % of control and 107 % of control | dose: 5000.0 mg/kg/injection, schedule: Q01DX009 (ip), vehicle: saline 98 % of control

NC(=O)NC1CCCCCCC1
inactive: [10] 98 % of control | [11] 89 % of control | dose: 400.0 mg/kg/injection, schedule: Q04DX003 (ip), vehicle: saline with Tween-80 95 % of control

Clc1ccc2[nH]c(-c3ccccc3)c(-c3ccccc3)c2c1
inactive: [5] 92 % of control | dose: 100.0 mg/kg/injection, schedule: Q01DX009 (ip), vehicle: acetone 102 % of control | [7] 89 % of control | dose: 200.0 mg/kg/injection, schedule: Q01DX009 (ip), vehicle: acetone 102 % of control | [9] 96 % of control

O=C(Nc1ccc(Br)cc1)c1cc(Br)ccc1O
inactive: dose: 50.0 mg/kg/injection, schedule: Q01DX001 (ip), vehicle: carboxymethylcellulose (CMC) 98 % of control | dose: 100.0 mg/kg/injection, schedule: Q01DX001 (ip), vehicle: carboxymethylcellulose (CMC) 102 % of control | [12] 103 % of control | dose: 200.0 mg/kg/injection, schedule: Q01DX001 (ip), vehicle: carboxymethylcellulose (CMC) 89 % of control | [13] 92 % of control | dose: 400.0 mg/kg/injection, schedule: Q01DX001 (ip), vehicle: carboxymethylcellulose (CMC) 94 % of control | dose: 400.0 mg/kg/injection, schedule: Q04DX002 (ip), vehicle: Klucel (hydroxypropylcellulose) (HPC) 95 % of control

CCCCCC(CN(C)C)C(=O)/C=C/c1ccccc1 (stereo not drawn)
inactive: dose: 50.0 mg/kg/injection, schedule: Q01DX009 (sc), vehicle: other 95 % of control | dose: 100.0 mg/kg/injection, schedule: Q01DX001 (sc), vehicle: steriod suspending solution 93 % of control | dose: 100.0 mg/kg/injection, schedule: Q01DX009 (sc), vehicle: other 102 % of control | dose: 100.0 mg/kg/injection, schedule: Q04DX003 (sc), vehicle: other 101 % of control | dose: 200.0 mg/kg/injection, schedule: Q01DX001 (sc), vehicle: steriod suspending solution 93 % of control | dose: 200.0 mg/kg/injection, schedule: Q04DX003 (sc), vehicle: other 90 % of control | dose: 400.0 mg/kg/injection, schedule: Q01DX001 (sc), vehicle: steriod suspending solution 100 % of control

Cc1ccc(Cl)c(NC(=O)Nc2cccc(C(F)(F)F)c2)c1
inactive: [14] 87 % of control | [15] 87 % of control | [16] 90 % of control

CC(=O)OCC(OS(=O)(=O)c1ccc(C)cc1)C(OC(C)=O)C(OC(C)=O)C(COC(C)=O)OS(=O)(=O)c1ccc(C)cc1 (stereo not drawn)
inactive: dose: 50.0 mg/kg/injection, schedule: Q04DX002 (ip), vehicle: Klucel (hydroxypropylcellulose) (HPC) 90 % of control | [12] 101 % of control | [13] 101 % of control

O=C(/C=C/c1ccccc1)NC(=S)Nc1ccc(C(=O)O)cc1
inactive: [14] 92 % of control | [17] 101 % of control | [15] 101 % of control | [18] 100 % of control | [16] 94 % of control | [19] 108 % of control

CC12COC(=O)CC1CCC1C2CCC2(C)C1CCC2(C)O (stereo not drawn)
inactive: [20] 96 % of control | [5] 93 % of control | [21] 91 % of control | [7] 90 % of control | [22] 101 % of control

COC(=O)C1C(C)CCCC1(C)c1ccccc1 (stereo not drawn)
inactive: dose: 100.0 mg/kg/injection, schedule: Q04DX002 (ip), vehicle: gum acacia 103 % of control | dose: 200.0 mg/kg/injection, schedule: Q04DX002 (ip), vehicle: gum acacia 106 % of control | dose: 400.0 mg/kg/injection, schedule: Q04DX002 (ip), vehicle: gum acacia 95 % of control

CC(C)=NC(=O)NO.[Cl][Co][Cl]
inactive: dose: 9.4 mg/kg/injection, schedule: Q04DX003 (ip), vehicle: saline 100 % of control | dose: 18.75 mg/kg/injection, schedule: Q04DX003 (ip), vehicle: saline 107 % of control | dose: 37.5 mg/kg/injection, schedule: Q04DX003 (ip), vehicle: saline 107 % of control | [23] 103 % of control

CCN(CC)CCNc1nc(-c2cc(C(F)(F)F)cc(C(F)(F)F)c2)nc(C(Cl)(Cl)Cl)n1
inactive: [1] 88 % of control | [2] 101 % of control | [3] 88 % of control

CCCCC#CC(=O)OCCC
inactive: [10] 94 % of control | [11] 99 % of control

CCOC(=O)C[P+](c1cccc(OC)c1)(c1cccc(OC)c1)c1cccc(OC)c1
inactive: dose: 15.0 mg/kg/injection, schedule: Q01DX001 (ip), vehicle: carboxymethylcellulose (CMC) 90 % of control | dose: 30.0 mg/kg/injection, schedule: Q01DX001 (ip), vehicle: carboxymethylcellulose (CMC) 91 % of control

CCOC(=O)c1[nH]c2c(c1CC(CC)[N+](=O)[O-])CCCC2 (stereo not drawn)
inactive: [14] 96 % of control | [17] 93 % of control | [15] 98 % of control | [18] 93 % of control | [16] 101 % of control | [19] 95 % of control

Cn1nc(C#N)c2c(N)ncnc21
inactive: [5] 104 % of control | [7] 104 % of control | [9] 101 % of control

OC1CSC2=[N+]1CCS2 (stereo not drawn)
inactive: [23] 98 % of control | dose: 150.0 mg/kg/injection, schedule: Q01DX001 (ip), vehicle: saline 112 % of control | dose: 300.0 mg/kg/injection, schedule: Q01DX001 (ip), vehicle: saline 111 % of control

COc1ccc(C(=O)/C=C/c2ccc3c(c2)OCO3)cc1
inactive: [17] 100 % of control | [18] 94 % of control | [19] 93 % of control

O=C(CCc1ccc(O)cc1)N/N=C/c1ccc2c(c1)OCO2
inactive: [22] 97 % of control | [24] 87 % of control

S=C(Nc1ccccc1)c1ccccn1
inactive: [21] 102 % of control | [22] 100 % of control | [24] 90 % of control

CC(=O)OCC1CCCN1C(C)=O (stereo not drawn)
inactive: [4] 101 % of control | [6] 101 % of control | [8] 101 % of control

Nc1ccccc1Sc1ccc(C(=O)O)cc1[N+](=O)[O-]
inactive: [17] 104 % of control | [18] 96 % of control | [19] 100 % of control

O=C(CCC1c2ccccc2C(=O)c2ccccc21)c1ccccc1
inactive: [20] 108 % of control | [21] 97 % of control | [22] 101 % of control

CN(C)/C=N/c1nccs1
inactive: [5] 104 % of control | [7] 107 % of control | [9] 107 % of control

CCOC(CC)OCC
inactive: [5] 97 % of control | [7] 103 % of control | [9] 94 % of control

COc1ccc(C)cc1NC(=O)Nc1ccco1
inactive: [21] 97 % of control | [22] 92 % of control | [24] 90 % of control
